Data taken from patent US20080261895A1 (Wyeth, priority 2006, published 2008).
“And” between values parts separate entries of the source, which are not always exact repeats. Equal values may be shown once.

How the values were obtained:
[1] = Metabolites of DVS observed by LC/MS in dog plasma, urine and feces; type: in vivo, beagle dogs; conditions: P: plasma, U: urine, F: feces
Experimental: An Agilent Model 1100 HPLC system (Agilent Technologies, Wilmington, Del.) including an autosampler and diode array UV detector was used for LC/MS analysis. The UV detector was set to monitor 200 to 400 nm. Separations were accomplished on a 5 micron Phenomenex Luna C18(2) column, 150×2 mm (Phenomenex). The column temperature was 25° C. For selected LC/MS analyses, radiochromatograms were acquired using a β-RAM model 3 radioactivity flow detector (IN/US Systems Inc., Tampa, Fla.) equipped with a solid scintillation flow cell.
The mass spectrometers used for metabolite characterization were a Micromass Q-TOF-2 quadrupole time-of-flight hybrid mass spectrometer (Micromass, Inc., Beverly, Mass.) and a Finnigan LCQ Deca ion trap mass spectrometer (ThermoFinnigan, San Jose, Calif.). The mass spectrometer was equipped with an electrospray ionization (ESI) interface and operated in the positive ionization mode.

[2] = Urinary excretion and metabolite profile by radiochromatography, dogs; type: in vivo, beagle dogs; conditions: urine 8-24 hours post-dose, single oral 30 mg/kg, mean of 2 analyses, 30 mg/kg
Experimental: (§1) For each dog, urine and feces were collected separately, with urine collected on dry ice and feces collected at room temperature. Collections were from 0-8 and 8-24 hours for urine and 0-24 hours for feces. Urine and fecal samples were shipped on dry ice to Wyeth Research, Biotransformation Division (Collegeville, Pa.) for analysis. Fecal samples were homogenized in approximately five volumes (v/w) of water. Aliquots of approximately 0.2 grams of the homogenate were placed into combusto-cones, weighed and allowed to air dry. These samples were then oxidized and radioactivity content determined. The remaining urine samples and fecal homogenates were stored at −70° C. until metabolite analysis. Blood samples and fecal homogenates were oxidized in a Model 307 Tri-Carb sample oxidizer, using Carbosorb® E (6 mL) as trapping agent and PermaFluor® E^+ (10 mL) as scintillant. The background reading (average of control blood or fecal samples) was subtracted from each sample reading. Aliquots of urine and plasma were analyzed directly following the addition of 10 mL of Ultima Gold™ scintillation fluid.
Urine samples collected between 8 and 24 hours post-dose were analyzed for metabolite profiles. Aliquots of urine were centrifuged at 14000 rpm in an Eppendorf Model 5415C centrifuge for 10 minutes. The supernatant was transferred to a fresh tube and analyzed for radioactivity content and by HPLC for metabolite profiling. Selected samples were also analyzed by LC/MS to characterize the radioactive peaks.
(§2) Chromatographic analyses were performed with a Waters Alliance model 2690 HPLC system (Waters Corp., Milford, Mass.). It was equipped with a built-in autosampler and was in-line with a model 2487 tunable UV detector, set to monitor 225 nm, and a FloOne β Model 515 radioactivity flow detector (Perkin Elmer) with a 250 μL LQTR flow cell. The flow rate of Ultima Flow M scintillation fluid was 3 mL/min, providing a mixing ratio of scintillation cocktail to mobile phase of 3:1. Separation of the metabolite peaks was accomplished on a Phenomenex Luna C18(2) column, 250×4.6 mm, 5 micron (Phenomenex, Torrance, Calif.), using a linear gradient of two mobile phases, A and B. Mobile phase A was 10 mM ammonium acetate, pH 5.5, and mobile phase B was acetonitrile. The flow rate was 1 mL/min.

[3] = Plasma metabolite profile by radiochromatography, dogs; type: in vivo, beagle dogs; conditions: single oral 30 mg/kg DVS
Experimental: Plasma samples collected at 1 and 4 hours post-dose were analyzed for metabolite profiles. Aliquots of 1 mL plasma were mixed with an equal volume of acetonitrile, placed on ice for at least 10 minutes, and then centrifuged at 14000 rpm in an Eppendorf Model 5415C centrifuge for 10 minutes. The supernatant fluid was transferred to a clean tube. The supernatant was analyzed for radioactivity. The supernatant was concentrated under a stream of nitrogen in a Turbo Vap (Zymark, Hopinkton, Mass.) to remove the acetonitrile. An aliquot of the aqueous residue was analyzed by HPLC for profiling. Selected samples were also analyzed by LC/MS to characterize the radioactive peaks.
Chromatographic analyses were performed with a Waters Alliance model 2690 HPLC system (Waters Corp., Milford, Mass.). It was equipped with a built-in autosampler and was in-line with a model 2487 tunable UV detector, set to monitor 225 nm, and a FloOne β Model 515 radioactivity flow detector (Perkin Elmer) with a 250 μL LQTR flow cell. The flow rate of Ultima Flow M scintillation fluid was 3 mL/min, providing a mixing ratio of scintillation cocktail to mobile phase of 3:1. […]

[4] = Plasma metabolite profile by radiochromatography, rats; type: in vivo, Sprague Dawley rats; conditions: single oral 20 mg/kg DVS
Experimental: Plasma samples collected at 1, 4 and 8 hours post-dose were analyzed for metabolite profiles. Aliquots of 0.5 mL plasma were mixed with an equal volume of acetonitrile, placed on ice for approximately 10 minutes, and then centrifuged at 3500 rpm and 4° C. in a Sorvall Super 21 centrifuge for 10 minutes. The supernatant fluid was transferred to a clean tube. The supernatant was analyzed for radioactivity. The supernatant was concentrated under a stream of nitrogen in a Turbo Vap (Zymark, Hopinkton, Mass.) to remove the acetonitrile. An aliquot of the aqueous residue was analyzed by HPLC for metabolite profiling. Selected samples were also analyzed by LC/MS to characterize the radioactive peaks.
as §2, with “β Model 525 radioactivity flow” for “β Model 515 radioactivity flow”, “fluid was 1 mL/min, providing” for “fluid was 3 mL/min, providing”, “phase of 5:1. Separation of” for “phase of 3:1. Separation of”, “C18(2) column, 150×2.0 mm, 5” for “C18(2) column, 250×4.6 mm, 5”, “acetate, pH 6.0, and mobile” for “acetate, pH 5.5, and mobile”, “rate was 0.2 mL/min.” for “rate was 1 mL/min.”

[5] = Metabolites of DVS observed by LC/MS in rat plasma, urine and feces; type: in vivo, Sprague Dawley rats; conditions: P: plasma, U: urine, F: feces
Experimental: An Agilent Model 1100 HPLC system (Agilent Technologies, Wilmington, Del.) including an autosampler and diode array UV detector was used for LC/MS analysis. The UV detector was set to monitor 200 to 400 nm. Separations were accomplished on a 5 micron Phenomenex Luna C18(2) column, 150×2 mm (Phenomenex). The column temperature was 25° C. The mobile phases and gradient program were as follows.
The mass spectrometer used for metabolite characterization was a Micromass Q-TOF-2 quadrupole time-of-flight hybrid mass spectrometer (Micromass, Inc., Beverly, Mass.). The mass spectrometer was equipped with an electrospray ionization (ESI) interface and operated in the positive ionization mode.

[6] = Urinary excretion and metabolite profile by radiochromatography, rats; type: in vivo, Sprague Dawley rats; conditions: for Compounds Detected by Radiochromatography in urine (Mean ± S.D., n = 3), percent of total peaks: single oral 20 mg/kg
Experimental: (§3) Urine and feces were collected separately on dry ice from three animals per sex. Collections were from 0-8 and 8-24 hours for male rats and 0-8 hours for female rats. Fecal samples were homogenized in approximately five volumes (v/w) of water. Aliquots of approximately 0.4 grams of the homogenate were placed into combusto-cones, weighed and allowed to air dry. These samples were then oxidized. The remaining urine samples and fecal homogenates were stored at −70° C. until metabolite analysis.
All urine samples were analyzed for metabolite profiles. Aliquots of 0.5 mL urine were centrifuged at 3500 rpm and 4° C. in a Sorvall Super 21 centrifuge for 10 minutes. The supernatant was transferred to a fresh tube and analyzed for radioactivity content and by HPLC for profiling. Selected samples were also analyzed by LC/MS to characterize the radioactive peaks.
as §2, with “β Model 525 radioactivity flow” for “β Model 515 radioactivity flow”, “fluid was 1 mL/min, providing” for “fluid was 3 mL/min, providing”, “phase of 5:1. Separation of” for “phase of 3:1. Separation of”, “C18(2) column, 150×2.0 mm, 5” for “C18(2) column, 250×4.6 mm, 5”, “acetate, pH 6.0, and mobile” for “acetate, pH 5.5, and mobile”, “rate was 0.2 mL/min.” for “rate was 1 mL/min.”

[7] = Fecal excretion and metabolite profile by radiochromatography, dogs; type: in vivo, beagle dogs; conditions: single oral 30 mg/kg; for Compounds Detected by Radiochromatography in feces, percent of total peaks, individual dogs: feces 0-24 hours post dose (dog 7 until 48 hours), average of 2 analyses; for Compounds Detected by Radiochromatography in feces, percent of total peaks, Mean ± S.D.: feces 0-24 hours post dose
Experimental: as §1
Fecal homogenates collected up to 24 hours post-dose were analyzed for metabolite profiles. Aliquots of approximately 2 grams of fecal homogenate were transferred to a fresh tube, an equal volume of acetonitrile (v/w) was added, and the tube vortexed. Samples were then centrifuged at 14000 rpm in an Eppendorf Model 5415C centrifuge for 10 minutes. The supernatant was transferred to a clean tube. The residue was re-suspended with 1 mL acetonitrile and centrifuged as described above. The resulting supernatant was combined with the original supernatant and analyzed for radioactivity. The supernatants were then concentrated under a stream of nitrogen in a Turbo Vap to remove the acetonitrile. An aliquot of the aqueous residue was analyzed by HPLC for profiling. Selected samples were also analyzed by LC/MS to characterize the radioactive peaks.
as §2

[8] = Fecal excretion and metabolite profile by radiochromatography, rats; type: in vivo, Sprague Dawley rats; conditions: male rats, feces 8-24 hours post-dose, single oral 20 mg/kg, 20 mg/kg
Experimental: as §3
Fecal homogenates collected from male rats between 8 and 24 hours post-dose were analyzed for metabolite profiles. Aliquots of approximately 1 gram of fecal homogenate were centrifuged at 3500 rpm and 4° C. in a Sorvall Super 21 centrifuge for 10 minutes. The supernatant was transferred to a clean tube. The residue was re-suspended with 1 mL of water:acetonitrile (1:1, v:v) and centrifuged as described above. The resulting supernatant was combined with the original supernatant and the residue re-suspended with 1 mL of acetonitrile. The suspension was centrifuged as described above, and the supernatants were combined and analyzed for radioactivity. The supernatants were then concentrated under a stream of nitrogen in a Turbo Vap to remove the acetonitrile. An aliquot of the aqueous residue was analyzed by HPLC for profiling. Selected samples were also analyzed by LC/MS to characterize the radioactive peaks.
as §2, with “β Model 525 radioactivity flow” for “β Model 515 radioactivity flow”, “fluid was 1 mL/min, providing” for “fluid was 3 mL/min, providing”, “phase of 5:1. Separation of” for “phase of 3:1. Separation of”, “C18(2) column, 150×2.0 mm, 5” for “C18(2) column, 250×4.6 mm, 5”, “acetate, pH 6.0, and mobile” for “acetate, pH 5.5, and mobile”, “rate was 0.2 mL/min.” for “rate was 1 mL/min.”

Row | SMILES | Matrix (metabolite observed by LC/MS) [1] | Compounds Detected by Radiochromatography in urine, percent of total peaks, individual dogs [2] | Matrix (metabolite observed by LC/MS) [5] | Compounds Detected by Radiochromatography in feces, percent of total peaks, individual dogs [7] | Compounds Detected by Radiochromatography in feces, percent of total peaks, Mean ± S.D. [8] | Compounds Detected by Radiochromatography in feces, percent of total peaks, Mean ± S.D. [7] | other results
1 | CN(C)CC(c1ccc(O[C@@H]2O[C@H](C(=O)O)[C@@H](O)[C@H](O)[C@H]2O)cc1)C1(O)CCCCC1 (some centres unmarked) [Metabolite M7, O-desmethylvenlafaxine O-glucuronide] | P, U, F | 84.1% and 83.5% and 83.9% and 86.8% | P, U, F |  |  |  | % of the radioactivity detected in plasma ([3]; 1 hour post-dose): 77.5%; % of the radioactivity detected in plasma ([3]; 4 hours post-dose): 96.4%; % of the radioactivity in plasma ([4]; female rats, 1 hour post-dose): 86.6%; % of the radioactivity in plasma ([4]; male rats, 1 hour post-dose): 88.7%; % of the radioactivity in plasma ([4]; male rats, 4 hours post-dose): 93.6%; % of the radioactivity detected in urine ([6]; all urine samples at each time point): approximately 75%; Compounds Detected by Radiochromatography in urine (Mean ± S.D., n = 3), percent of total peaks ([6]; 0-8 hr, female): 74.0 ± 3.3%; Compounds Detected by Radiochromatography in urine (Mean ± S.D., n = 3), percent of total peaks ([6]; 0-8 hr, male): 76.5 ± 1.9%; Compounds Detected by Radiochromatography in urine (Mean ± S.D., n = 3), percent of total peaks ([6]; 8-24 hr, male): 77.2 ± 1.2%
2 | CN(C)CC(O)(c1ccc(O)cc1)C1(O)CCCCC1 (centres unmarked) [Metabolite M9, Hydroxy DV] | U, F |  |  |  |  |  | 
3 | CNCC(c1ccc(O)cc1)C1(O)CCCCC1 (centres unmarked) [Metabolite M10, N,O-didesmethylvenlafaxine] | P, U, F |  | P, U, F | 9.8% and 17.7% and 8.6% and 11.2% | 34% and 33.6 ± 0.9% |  | Compounds Detected by Radiochromatography in feces, percent of total peaks, individual rats [8]: 34.5% and 32.6% and 33.6%

Further lines, with some results ahead:

Row | Matrix (metabolite observed by LC/MS) [1] | Compounds Detected by Radiochromatography in urine, percent of total peaks, individual dogs [2] | Matrix (metabolite observed by LC/MS) [5] | Compounds Detected by Radiochromatography in feces, percent of total peaks, individual dogs [7] | Compounds Detected by Radiochromatography in feces, percent of total peaks, Mean ± S.D. [8] | Compounds Detected by Radiochromatography in feces, percent of total peaks, Mean ± S.D. [7] | SMILES | other results
4 | P, U | 3.3% and 3.5% and 4.3% and 3.6% | P, U |  |  |  | CNCC(c1ccc(O[C@@H]2O[C@H](C(=O)O)[C@@H](O)[C@H](O)[C@H]2O)cc1)C1(O)CCCCC1 (some centres unmarked) [Metabolite M13, N,O-didesmethylvenlafaxine O-glucuronide] | 
5 | U, F |  |  | 4.4% and 16.1% and 0.0% (2×) |  | 5.1 ± 7.0% | NCC(c1ccc(O)cc1)C1(O)CCCCC1 (centres unmarked) [Metabolite M14, N,N,O-tridesmethylvenlafaxine] | 
6 | P, U, F |  | P, U, F^b | 7.3% and 15.7% and 5.7% and 0.0% | 7% | approximately 7% | C[N+](C)([O-])CC(c1ccc(O)cc1)C1(O)CCCCC1 (centres unmarked) [N-oxide DV] | Compounds Detected by Radiochromatography in feces, percent of total peaks, Mean ± S.D. ([7]; listed as N-Oxide): 7.2 ± 6.1%; Compounds Detected by Radiochromatography in feces, percent of total peaks, Mean ± S.D. ([8]; listed as N-Oxide): 7.1 ± 1.3%; Compounds Detected by Radiochromatography in feces, percent of total peaks, individual rats ([8]; listed as N-Oxide): 6.0% and 6.7% and 8.5%
